According to PubChem BioAssay AID1845205 (Molecular Pharmacology Branch, DTP, NCI, 2023):

Tested on: MPNST multicellular tumor spheroids, viability % test/control
Test: Anticancer human tumor MPNST cell line growth inhibition;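 note: spheroids exposed to agents for seven days after three days of growth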;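 for viability, T/C: luminescence signal used as surrogate for viable cell amount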
Conditions: for IC50: curve of first compound; for viability, T/C: stronger effect = lower value
How it was run: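 Single agents and combinations were tested on spheroids built from tumor cells plus HUVEC and hMSC, at half-log dilutions starting at or near clinical Cmax, else 10 microM; final DMSO 0.25% (v/v).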

[1] = second compound 1 µM, first compound 0.0316 µM
[2] = second compound 1 µM, first compound 0.1 µM
[3] = second compound 1 µM, first compound 0.316 µM
[4] = second compound 1 µM, first compound 1 µM
[5] = second compound 1 µM, first compound 3.16 µM
[6] = second compound 1 µM, first compound 10 µM
[7] = second compound 3.16 µM, first compound 0.0316 µM
[8] = second compound 3.16 µM, first compound 0.1 µM
[9] = second compound 3.16 µM, first compound 0.316 µM
[10] = second compound 3.16 µM, first compound 1 µM
[11] = second compound 3.16 µM, first compound 3.16 µM
[12] = second compound 3.16 µM, first compound 10 µM
[13] = second compound 10 µM, first compound 0.0316 µM
[14] = second compound 10 µM, first compound 0.1 µM
[15] = second compound 10 µM, first compound 0.316 µM
[16] = second compound 10 µM, first compound 1 µM
[17] = second compound 10 µM, first compound 3.16 µM
[18] = second compound 10 µM, first compound 10 µM
[19] = second compound 31.6 µM, first compound 0.0316 µM
[20] = second compound 31.6 µM, first compound 0.1 µM
[21] = second compound 31.6 µM, first compound 0.316 µM
[22] = second compound 31.6 µM, first compound 1 µM
[23] = second compound 31.6 µM, first compound 3.16 µM
[24] = second compound 31.6 µM, first compound 10 µM
[25] = second compound 100 µM, first compound 0.0316 µM
[26] = second compound 100 µM, first compound 0.1 µM
[27] = second compound 100 µM, first compound 0.316 µM
[28] = second compound 100 µM, first compound 1 µM
[29] = second compound 100 µM, first compound 3.16 µM
[30] = second compound 100 µM, first compound 10 µM

SMILES | IC50 (second compound 1 µM) | IC50 (second compound 3.16 µM) | IC50 (second compound 10 µM) | IC50 (second compound 31.6 µM) | IC50 (second compound 100 µM) | viability, T/C [1] | viability, T/C [2] | viability, T/C [3] | viability, T/C [4] | viability, T/C [5] | viability, T/C [6] | viability, T/C [7] | viability, T/C [8] | viability, T/C [9] | viability, T/C [10] | viability, T/C [11] | viability, T/C [12] | viability, T/C [13] | viability, T/C [14] | viability, T/C [15] | other results
CC(C)n1c(=O)n(C)c2cnc3cc(F)c(-c4ccc(OCCCN5CCCCC5)nc4)cc3c21 + Cn1nnc2c(C(N)=O)ncn2c1=O | > 10 µM | > 10 µM | > 10 µM | > 10 µM | > 10 µM | 87.4% | 83.7% | 82.6% | 77.9% | 79.4% | 61.9% | 84.6% | 82.9% | 92.5% | 99% | 84.9% | 65.2% | 76.6% | 92.4% | 82.4% | viability, T/C [16]: 74.8%; viability, T/C [17]: 77.7%; viability, T/C [18]: 72.1%; viability, T/C [19]: 88.2%; viability, T/C [20]: 89%; viability, T/C [21]: 68.6%; viability, T/C [22]: 81.8%; viability, T/C [23]: 83.7%; viability, T/C [24]: 68.8%; viability, T/C [25]: 76.8%; viability, T/C [26]: 71.8%; viability, T/C [27]: 74.2%; viability, T/C [28]: 71.2%; viability, T/C [29]: 91%; viability, T/C [30]: 67.2%
COc1ccc([C@@H](O)c2cc(-c3ncnc4cc(N5CCOCC5)ccc34)c(F)cc2Cl)nn1 + Cn1nnc2c(C(N)=O)ncn2c1=O | 1.65 µM | 1.51 µM | 1.82 µM | 2.07 µM | 1.58 µM | 93.3% | 90.2% | 73.2% | 59% | 39.5% | 23% | 76.4% | 99.1% | 80% | 57.7% | 35.9% | 23.4% | 86.8% | 74.9% | 73% | viability, T/C [16]: 65.5%; viability, T/C [17]: 36.6%; viability, T/C [18]: 24.2%; viability, T/C [19]: 81.2%; viability, T/C [20]: 72.8%; viability, T/C [21]: 75.2%; viability, T/C [22]: 66.5%; viability, T/C [23]: 40.4%; viability, T/C [24]: 26.4%; viability, T/C [25]: 76.3%; viability, T/C [26]: 90.8%; viability, T/C [27]: 68.4%; viability, T/C [28]: 57.7%; viability, T/C [29]: 39.7%; viability, T/C [30]: 25.6%
